Data as given in ChEMBL document CHEMBL3991601, “The target landscape of clinical kinase drugs” (Science, 2017).
pKd: −log10 of the molar value. Calls of active or inactive are those of the source. Cut-off read from the data, not from the text of the source, for most assays here: actives have a measured Kd and inactives only a lower limit.

Key:
[1] = target: T1, Serine/threonine-protein kinase ULK3 (Homo sapiens, UniProt Q6PHR2)
T1 sequence (Q6PHR2 whole entry): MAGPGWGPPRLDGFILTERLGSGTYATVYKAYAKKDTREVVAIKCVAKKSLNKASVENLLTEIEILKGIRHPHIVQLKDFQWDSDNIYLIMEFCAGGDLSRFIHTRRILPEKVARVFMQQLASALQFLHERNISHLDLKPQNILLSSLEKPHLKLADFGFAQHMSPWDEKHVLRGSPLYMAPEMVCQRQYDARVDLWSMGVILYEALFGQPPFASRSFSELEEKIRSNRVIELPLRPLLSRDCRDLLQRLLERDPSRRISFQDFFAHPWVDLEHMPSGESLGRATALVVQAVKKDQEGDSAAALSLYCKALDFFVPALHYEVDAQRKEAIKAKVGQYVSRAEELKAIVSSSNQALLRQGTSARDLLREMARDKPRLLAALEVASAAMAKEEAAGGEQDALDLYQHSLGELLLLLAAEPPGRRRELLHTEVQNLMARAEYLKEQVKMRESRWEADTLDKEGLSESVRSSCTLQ

[2] = target: Bone morphogenetic protein receptor type-1B (Homo sapiens, UniProt O00238)
[3] = target: Ribosomal protein S6 kinase alpha-6 (Homo sapiens, UniProt Q9UK32)
[4] = target: T2, ATP-dependent RNA helicase DDX42 (Homo sapiens, UniProt Q86XP3)
T2 sequence (Q86XP3 whole entry): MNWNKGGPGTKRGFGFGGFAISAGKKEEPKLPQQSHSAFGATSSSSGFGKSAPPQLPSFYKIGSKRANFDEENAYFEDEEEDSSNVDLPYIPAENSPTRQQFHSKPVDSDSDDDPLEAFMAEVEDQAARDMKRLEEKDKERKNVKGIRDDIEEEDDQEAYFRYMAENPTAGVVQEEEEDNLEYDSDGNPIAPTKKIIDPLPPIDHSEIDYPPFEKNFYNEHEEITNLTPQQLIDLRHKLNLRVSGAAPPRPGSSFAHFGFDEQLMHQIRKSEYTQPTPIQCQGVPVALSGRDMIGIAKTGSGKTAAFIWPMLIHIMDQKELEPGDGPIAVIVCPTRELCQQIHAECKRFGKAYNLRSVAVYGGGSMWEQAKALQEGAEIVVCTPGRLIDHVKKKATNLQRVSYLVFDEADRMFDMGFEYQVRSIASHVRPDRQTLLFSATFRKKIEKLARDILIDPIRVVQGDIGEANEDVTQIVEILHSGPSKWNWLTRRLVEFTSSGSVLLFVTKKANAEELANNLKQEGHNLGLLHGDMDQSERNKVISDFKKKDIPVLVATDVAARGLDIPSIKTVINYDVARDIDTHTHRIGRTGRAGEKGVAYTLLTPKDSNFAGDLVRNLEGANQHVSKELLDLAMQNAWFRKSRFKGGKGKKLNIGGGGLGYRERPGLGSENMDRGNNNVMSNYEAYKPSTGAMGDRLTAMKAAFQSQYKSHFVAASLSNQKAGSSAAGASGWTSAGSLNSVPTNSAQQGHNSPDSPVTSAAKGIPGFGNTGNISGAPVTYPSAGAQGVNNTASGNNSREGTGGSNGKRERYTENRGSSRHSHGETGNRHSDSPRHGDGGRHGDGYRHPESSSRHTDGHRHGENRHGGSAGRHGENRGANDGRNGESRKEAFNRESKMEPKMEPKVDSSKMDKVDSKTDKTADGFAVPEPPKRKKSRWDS

[5] = target: Ephrin type-A receptor 2 (Homo sapiens, UniProt P29317)
[6] = target: Mitogen-activated protein kinase 8 (Homo sapiens, UniProt P45983)
[7] = target: LIM domain kinase 2 (Homo sapiens, UniProt P53671)
[8] = target: cAMP-dependent protein kinase catalytic subunit alpha (Homo sapiens, UniProt P17612)
[9] = target: T3, Mitogen-activated protein kinase kinase kinase 6 (Homo sapiens, UniProt O95382)
T3 sequence (O95382 whole entry): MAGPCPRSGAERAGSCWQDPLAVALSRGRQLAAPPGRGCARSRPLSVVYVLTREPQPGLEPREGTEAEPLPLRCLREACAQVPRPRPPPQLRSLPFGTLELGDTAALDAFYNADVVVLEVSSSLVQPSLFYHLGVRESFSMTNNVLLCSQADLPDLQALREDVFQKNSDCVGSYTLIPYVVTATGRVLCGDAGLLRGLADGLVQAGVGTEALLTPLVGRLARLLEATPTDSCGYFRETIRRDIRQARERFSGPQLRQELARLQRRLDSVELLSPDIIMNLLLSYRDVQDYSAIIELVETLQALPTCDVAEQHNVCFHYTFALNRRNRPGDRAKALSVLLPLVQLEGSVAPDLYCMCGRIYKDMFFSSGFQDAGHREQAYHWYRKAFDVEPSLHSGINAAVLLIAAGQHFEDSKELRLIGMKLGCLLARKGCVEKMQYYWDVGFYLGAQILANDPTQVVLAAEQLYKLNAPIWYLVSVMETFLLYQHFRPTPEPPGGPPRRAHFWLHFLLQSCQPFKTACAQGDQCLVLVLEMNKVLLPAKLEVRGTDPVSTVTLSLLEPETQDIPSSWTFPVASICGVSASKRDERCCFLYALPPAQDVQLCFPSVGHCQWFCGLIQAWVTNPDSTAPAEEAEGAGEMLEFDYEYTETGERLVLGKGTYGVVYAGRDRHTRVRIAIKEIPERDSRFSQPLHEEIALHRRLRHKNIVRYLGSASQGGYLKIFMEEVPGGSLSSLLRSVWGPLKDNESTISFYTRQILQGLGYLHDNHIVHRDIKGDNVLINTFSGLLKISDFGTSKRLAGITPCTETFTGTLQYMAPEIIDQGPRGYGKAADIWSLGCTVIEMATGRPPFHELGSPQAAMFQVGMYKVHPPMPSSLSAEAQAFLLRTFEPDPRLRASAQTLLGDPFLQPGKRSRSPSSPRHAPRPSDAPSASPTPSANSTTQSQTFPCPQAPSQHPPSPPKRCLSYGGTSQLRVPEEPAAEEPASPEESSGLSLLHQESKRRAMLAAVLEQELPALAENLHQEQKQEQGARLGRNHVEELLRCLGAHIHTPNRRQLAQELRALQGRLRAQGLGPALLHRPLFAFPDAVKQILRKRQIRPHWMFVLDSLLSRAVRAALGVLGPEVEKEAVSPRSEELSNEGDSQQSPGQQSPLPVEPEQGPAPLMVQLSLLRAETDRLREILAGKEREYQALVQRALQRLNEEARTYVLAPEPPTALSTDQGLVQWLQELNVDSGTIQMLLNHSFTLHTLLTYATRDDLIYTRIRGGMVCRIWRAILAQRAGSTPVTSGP
Note: in the data inactive means no Kd found up to 30 µM.

Sequence of Ribosomal protein S6 kinase alpha-6 (Q9UK32 whole entry): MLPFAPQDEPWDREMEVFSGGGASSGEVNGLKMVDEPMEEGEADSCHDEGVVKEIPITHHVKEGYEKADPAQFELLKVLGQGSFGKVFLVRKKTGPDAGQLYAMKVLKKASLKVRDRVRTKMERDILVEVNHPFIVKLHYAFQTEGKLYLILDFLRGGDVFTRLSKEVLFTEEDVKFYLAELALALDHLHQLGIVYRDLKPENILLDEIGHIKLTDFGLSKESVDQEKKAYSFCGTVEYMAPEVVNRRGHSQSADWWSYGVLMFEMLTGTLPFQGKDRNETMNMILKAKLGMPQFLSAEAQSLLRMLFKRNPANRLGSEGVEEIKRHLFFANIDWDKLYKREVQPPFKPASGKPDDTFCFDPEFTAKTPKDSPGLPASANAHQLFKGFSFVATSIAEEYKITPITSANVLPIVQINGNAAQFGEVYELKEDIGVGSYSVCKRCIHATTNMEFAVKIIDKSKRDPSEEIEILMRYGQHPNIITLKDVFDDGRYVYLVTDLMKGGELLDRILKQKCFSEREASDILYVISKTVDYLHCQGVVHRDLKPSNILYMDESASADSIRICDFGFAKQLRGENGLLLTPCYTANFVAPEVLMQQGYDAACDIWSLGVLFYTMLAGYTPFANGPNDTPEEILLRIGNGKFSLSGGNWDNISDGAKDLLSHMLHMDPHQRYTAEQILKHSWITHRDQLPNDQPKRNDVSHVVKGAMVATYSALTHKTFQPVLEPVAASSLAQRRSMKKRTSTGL
Sequence of LIM domain kinase 2 (P53671 whole entry, the tested form may be a part): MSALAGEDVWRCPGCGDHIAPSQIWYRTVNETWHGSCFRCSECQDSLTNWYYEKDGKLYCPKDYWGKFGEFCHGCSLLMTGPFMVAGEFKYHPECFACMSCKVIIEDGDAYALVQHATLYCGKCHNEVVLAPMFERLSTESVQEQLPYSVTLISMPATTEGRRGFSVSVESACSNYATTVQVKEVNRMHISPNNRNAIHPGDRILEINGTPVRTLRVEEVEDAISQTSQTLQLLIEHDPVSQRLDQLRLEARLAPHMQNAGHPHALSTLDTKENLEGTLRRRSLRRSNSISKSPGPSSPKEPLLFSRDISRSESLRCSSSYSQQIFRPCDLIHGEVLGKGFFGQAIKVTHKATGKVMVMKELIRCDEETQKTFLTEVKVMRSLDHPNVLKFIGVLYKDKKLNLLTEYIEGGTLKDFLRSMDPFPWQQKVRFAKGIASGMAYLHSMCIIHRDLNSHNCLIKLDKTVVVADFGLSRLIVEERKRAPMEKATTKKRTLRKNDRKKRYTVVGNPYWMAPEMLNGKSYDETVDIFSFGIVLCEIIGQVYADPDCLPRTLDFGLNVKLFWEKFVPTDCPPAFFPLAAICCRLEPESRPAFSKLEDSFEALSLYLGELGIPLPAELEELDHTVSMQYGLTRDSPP
Sequence of Mitogen-activated protein kinase 8 (P45983 whole entry, the tested form may be a part): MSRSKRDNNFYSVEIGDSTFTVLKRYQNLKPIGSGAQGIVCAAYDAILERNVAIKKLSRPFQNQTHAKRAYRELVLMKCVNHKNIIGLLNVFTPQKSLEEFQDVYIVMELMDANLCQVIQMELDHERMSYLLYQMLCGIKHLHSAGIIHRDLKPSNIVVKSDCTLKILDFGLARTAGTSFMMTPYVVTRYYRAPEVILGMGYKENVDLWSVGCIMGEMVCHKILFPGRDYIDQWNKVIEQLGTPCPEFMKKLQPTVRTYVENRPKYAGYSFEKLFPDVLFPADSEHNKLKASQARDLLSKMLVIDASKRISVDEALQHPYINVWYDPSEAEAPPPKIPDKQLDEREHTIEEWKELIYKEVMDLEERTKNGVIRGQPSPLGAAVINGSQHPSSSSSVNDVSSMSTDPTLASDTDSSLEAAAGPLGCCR
Sequence of Bone morphogenetic protein receptor type-1B (O00238 whole entry): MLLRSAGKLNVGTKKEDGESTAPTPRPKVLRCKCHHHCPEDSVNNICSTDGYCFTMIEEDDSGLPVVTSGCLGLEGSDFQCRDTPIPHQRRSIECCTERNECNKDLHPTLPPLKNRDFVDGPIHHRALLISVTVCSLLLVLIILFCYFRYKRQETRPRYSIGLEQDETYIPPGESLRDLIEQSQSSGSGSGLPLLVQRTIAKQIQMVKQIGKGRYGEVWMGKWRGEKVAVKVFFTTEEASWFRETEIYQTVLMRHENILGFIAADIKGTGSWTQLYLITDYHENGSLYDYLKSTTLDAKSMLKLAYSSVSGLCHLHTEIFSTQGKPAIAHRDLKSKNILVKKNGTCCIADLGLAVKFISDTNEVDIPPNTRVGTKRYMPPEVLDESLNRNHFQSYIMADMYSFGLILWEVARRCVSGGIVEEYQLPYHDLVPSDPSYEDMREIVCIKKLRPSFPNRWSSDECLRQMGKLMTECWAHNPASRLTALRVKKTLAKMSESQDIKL
Sequence of Ephrin type-A receptor 2 (P29317 whole entry): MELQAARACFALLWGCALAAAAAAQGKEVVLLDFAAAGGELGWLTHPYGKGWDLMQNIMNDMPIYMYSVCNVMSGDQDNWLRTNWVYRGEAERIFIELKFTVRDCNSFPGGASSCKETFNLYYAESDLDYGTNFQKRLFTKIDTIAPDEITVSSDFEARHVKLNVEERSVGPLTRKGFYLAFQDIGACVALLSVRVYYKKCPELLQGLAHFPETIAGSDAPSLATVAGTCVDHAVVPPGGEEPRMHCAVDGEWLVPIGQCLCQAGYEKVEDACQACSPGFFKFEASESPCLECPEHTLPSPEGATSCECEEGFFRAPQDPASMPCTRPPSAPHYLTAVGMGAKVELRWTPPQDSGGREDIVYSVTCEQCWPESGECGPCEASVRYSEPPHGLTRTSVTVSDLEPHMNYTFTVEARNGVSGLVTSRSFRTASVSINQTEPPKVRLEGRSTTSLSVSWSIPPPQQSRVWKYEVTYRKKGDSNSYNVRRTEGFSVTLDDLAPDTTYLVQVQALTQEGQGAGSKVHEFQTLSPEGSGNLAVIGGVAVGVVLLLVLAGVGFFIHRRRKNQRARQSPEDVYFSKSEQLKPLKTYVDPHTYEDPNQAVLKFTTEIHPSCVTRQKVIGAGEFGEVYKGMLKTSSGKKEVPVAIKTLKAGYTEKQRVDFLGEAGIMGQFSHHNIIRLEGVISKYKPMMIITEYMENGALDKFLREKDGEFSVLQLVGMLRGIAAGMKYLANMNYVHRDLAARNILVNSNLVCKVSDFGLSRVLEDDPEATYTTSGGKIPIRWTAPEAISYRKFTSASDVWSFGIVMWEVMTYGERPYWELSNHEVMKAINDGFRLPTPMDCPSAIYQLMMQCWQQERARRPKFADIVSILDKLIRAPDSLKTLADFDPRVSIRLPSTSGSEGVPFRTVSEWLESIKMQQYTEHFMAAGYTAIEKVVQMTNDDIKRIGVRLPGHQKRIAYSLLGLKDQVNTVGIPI

## COc1cc2ncnc3c2cc1OCCCCCN(C)Cc1ccc(Br)cc1N3 [JNJ-26483327]
[1]
  Kd: > 30 µM (inactive)
[2]
  Kd: > 30 µM (inactive)
[3]
  Kd: > 30 µM (inactive)
[4]
  Kd: > 30 µM (inactive)
[5]
  Kd: > 30 µM (inactive)
[6]
  Kd: > 30 µM (inactive)
[7]
  Kd: > 30 µM (inactive)
[8]
  Kd: > 30 µM (inactive)
[9]
  Kd: > 30 µM (inactive)

## CCc1cc2c(cc1N1CCC(N3CCOCC3)CC1)C(C)(C)c1[nH]c3cc(C#N)ccc3c1C2=O [ALECTINIB]
[1]
  Kd: > 30 µM (inactive)
[2]
  Kd: > 30 µM (inactive)
[3]
  Kd: > 30 µM (inactive)
[4]
  Kd: > 30 µM (inactive)
[5]
  Kd: > 30 µM (inactive)
[6]
  Kd: > 30 µM (inactive)
[7]
  Kd: > 30 µM (inactive)
[8]
  Kd: > 30 µM (inactive)
[9]
  Kd: > 30 µM (inactive)

## CNC(=O)c1cccc(-c2ccc3c(N4CCOC[C@@H]4C)nc(N4CCOC[C@@H]4C)nc3n2)c1 [VISTUSERTIB]
[1]
  Kd: > 30 µM (inactive)
[2]
  Kd: > 30 µM (inactive)
[3]
  Kd: > 30 µM (inactive)
[4]
  Kd: > 30 µM (inactive)
[5]
  Kd: > 30 µM (inactive)
[6]
  Kd: > 30 µM (inactive)
[7]
  Kd: > 30 µM (inactive)
[8]
  Kd: > 30 µM (inactive)
[9]
  Kd: > 30 µM (inactive)

## CNC(=O)c1cc(COc2nnc(Nc3ccc(Cl)cc3)c3ccoc23)ccn1 [TELATINIB]
[1]
  Kd: > 30 µM (inactive)
[2]
  Kd: > 30 µM (inactive)
[3]
  Kd: > 30 µM (inactive)
[4]
  Kd: > 30 µM (inactive)
[5]
  Kd: > 30 µM (inactive)
[6]
  Kd: > 30 µM (inactive)
[7]
  Kd: > 30 µM (inactive)
[8]
  Kd: > 30 µM (inactive)
[9]
  Kd: > 30 µM (inactive)

## Cn1c(=O)c(F)c(Nc2ccc(I)cc2F)c2c(=O)n(C[C@@H](O)CO)cnc21 [TAK-733]
[1]
  Kd: > 30 µM (inactive)
[2]
  Kd: > 30 µM (inactive)
[3]
  Kd: > 30 µM (inactive)
[4]
  Kd: > 30 µM (inactive)
[5]
  Kd: > 30 µM (inactive)
[6]
  Kd: > 30 µM (inactive)
[7]
  Kd: > 30 µM (inactive)
[8]
  Kd: > 30 µM (inactive)
[9]
  Kd: > 30 µM (inactive)

## O=C(NOC[C@H](O)CO)c1ccc(F)c(F)c1Nc1ccc(I)cc1F [MIRDAMETINIB]
[1]
  Kd: > 30 µM (inactive)
[2]
  Kd: > 30 µM (inactive)
[3]
  Kd: > 30 µM (inactive)
[4]
  Kd: > 30 µM (inactive)
[5]
  Kd: > 30 µM (inactive)
[6]
  Kd: > 30 µM (inactive)
[7]
  Kd: > 30 µM (inactive)
[8]
  Kd: > 30 µM (inactive)
[9]
  Kd: > 30 µM (inactive)

## CC(C)(O)CC(=O)NCCn1ccc2ncnc(Nc3ccc(Oc4cccc(C(F)(F)F)c4)c(Cl)c3)c21 [TAK-285]
[1]
  Kd: > 30 µM (inactive)
[2]
  pKd: 5.79
[3]
  Kd: > 30 µM (inactive)
[4]
  Kd: > 30 µM (inactive)
[5]
  Kd: > 30 µM (inactive)
[6]
  Kd: > 30 µM (inactive)
[7]
  Kd: > 30 µM (inactive)
[8]
  Kd: > 30 µM (inactive)
[9]
  Kd: > 30 µM (inactive)

## NC[C@@](O)(c1ccc(Cl)cc1)c1ccc(-c2cn[nH]c2)cc1 [AT-13148]
[1]
  Kd: > 30 µM (inactive)
[2]
  Kd: > 30 µM (inactive)
[3]
  Kd: > 30 µM (inactive)
[4]
  Kd: > 30 µM (inactive)
[5]
  Kd: > 30 µM (inactive)
[6]
  Kd: > 30 µM (inactive)
[7]
  Kd: > 30 µM (inactive)
[8]
  Kd: 0.015 µM (active)
[9]
  Kd: > 30 µM (inactive)

## Cc1c(NC(=O)OC[C@@H]2COCCN2)cn2ncnc(Nc3ccc4c(cnn4Cc4cccc(F)c4)c3)c12 [AC-480]
[1]
  Kd: > 30 µM (inactive)
[2]
  Kd: > 30 µM (inactive)
[3]
  Kd: > 30 µM (inactive)
[4]
  Kd: > 30 µM (inactive)
[5]
  Kd: > 30 µM (inactive)
[6]
  Kd: > 30 µM (inactive)
[7]
  Kd: > 30 µM (inactive)
[8]
  Kd: > 30 µM (inactive)
[9]
  Kd: > 30 µM (inactive)

## C[C@@H]1COC(Nc2ccc3ncnc(Nc4ccc(OCc5nccs5)c(Cl)c4)c3c2)=N1 [VARLITINIB]
[1]
  Kd: > 30 µM (inactive)
[2]
  Kd: > 30 µM (inactive)
[3]
  Kd: > 30 µM (inactive)
[4]
  Kd: > 30 µM (inactive)
[5]
  Kd: > 30 µM (inactive)
[6]
  Kd: > 30 µM (inactive)
[7]
  Kd: > 30 µM (inactive)
[8]
  Kd: > 30 µM (inactive)
[9]
  Kd: > 30 µM (inactive)

## COCCN1CCN(Cc2ccc(-c3n[nH]c4c3C(=O)c3c(NC(=O)NN5CCOCC5)cccc3-4)cc2)CC1 [RGB-286638]
[1]
  Kd: > 30 µM (inactive)
[2]
  Kd: > 30 µM (inactive)
[3]
  Kd: > 30 µM (inactive)
[4]
  Kd: > 30 µM (inactive)
[5]
  Kd: > 30 µM (inactive)
[6]
  Kd: 0.731 µM (active)
[7]
  Kd: > 30 µM (inactive)
[8]
  Kd: > 30 µM (inactive)
[9]
  Kd: > 30 µM (inactive)

## CNC(=O)c1ccc(Nc2ncc(C(F)(F)F)c(NCc3nccnc3N(C)S(C)(=O)=O)n2)cc1 [DEFACTINIB]
[1]
  Kd: > 30 µM (inactive)
[2]
  Kd: > 30 µM (inactive)
[3]
  Kd: > 30 µM (inactive)
[4]
  Kd: > 30 µM (inactive)
[5]
  Kd: > 30 µM (inactive)
[6]
  Kd: > 30 µM (inactive)
[7]
  Kd: > 30 µM (inactive)
[8]
  Kd: > 30 µM (inactive)
[9]
  Kd: > 30 µM (inactive)

## C=CC(=O)Nc1cccc(Nc2nc(Nc3ccc(N4CCN(C(C)=O)CC4)cc3OC)ncc2C(F)(F)F)c1 [ROCILETINIB]
[1]
  Kd: > 30 µM (inactive)
[2]
  Kd: > 30 µM (inactive)
[3]
  Kd: > 30 µM (inactive)
[4]
  Kd: > 30 µM (inactive)
[5]
  Kd: > 30 µM (inactive)
[6]
  Kd: > 30 µM (inactive)
[7]
  Kd: > 30 µM (inactive)
[8]
  Kd: > 30 µM (inactive)
[9]
  Kd: > 30 µM (inactive)

## Cc1ccc(C(=O)Nc2ccc(Oc3cc4cnn(C)c4cc3-c3cn[nH]c3)c(F)c2)c(=O)n1-c1ccc(F)cc1 [MERESTINIB]
[1]
  Kd: > 30 µM (inactive)
[2]
  Kd: > 30 µM (inactive)
[3]
  Kd: > 30 µM (inactive)
[4]
  Kd: > 30 µM (inactive)
[5]
  Kd: > 30 µM (inactive)
[6]
  Kd: > 30 µM (inactive)
[7]
  Kd: > 30 µM (inactive)
[8]
  Kd: > 30 µM (inactive)
[9]
  Kd: > 30 µM (inactive)
